In patent US7521396B2, “Substituted (thioxo)carbonylaminophenyluracils” (Bayer CropScience AG, priority 2002, dated 2009):
Like-named read-outs stand apart in the source and are kept apart here. Marks after values point to notes of the source that are not given here.

Assay: logP by HPLC on reversed-phase column (C 18), EEC Directive 79/831 Annex V.A8
Format: physicochemical
[1] = a) acidic range: 0.1% aqueous phosphoric acid, acetonitrile gradient, 43° C.

SMILES: Cn1c(C(F)(F)F)cc(=O)n(-c2cc(NC(=O)N3CCC4(CC3)OCCCO4)c(Cl)cc2F)c1=O [Example 86]
- logP: logP = 2.29^a)

SMILES: CC(=O)NC1CCN(C(=O)Nc2cc(-n3c(=O)cc(C(F)(F)F)n(C)c3=O)c(F)cc2Br)C1 (stereo not drawn) [Example 95]
- logP: logP = 1.80^a)

SMILES: Cn1c(C(F)(F)F)cc(=O)n(-c2cc(NC(=O)N3CCC(=O)CC3)c(Cl)cc2F)c1=O [Example 92]
- logP [1]: logP = 1.93^a)

SMILES: Cn1c(C(F)(F)F)cc(=O)n(-c2cc(NC(=O)N3CCCS3(=O)=O)c(Br)cc2F)c1=O [Example 103]
- logP: logP = 2.41^a)

SMILES: Cn1c(C(F)(F)F)cc(=O)n(-c2cc(NC(=O)N3CCCCCC3)c(Cl)cc2F)c1=O [Example 98]
- logP: logP = 3.02^a)

SMILES: CCN(OC)C(=O)Nc1cc(-n2c(=O)cc(C(F)(F)F)n(C)c2=O)c(F)cc1Cl [Example 74]
- logP: logP = 2.93^a)

SMILES: Cn1c(C(F)(F)F)cc(=O)n(-c2cc(NC(=O)SC3=NCCS3)c(Br)cc2F)c1=O [Example 16]
- logP: logP = 3.53^a)

SMILES: Cn1c(C(F)(F)F)cc(=O)n(-c2cc(NC(=O)N3CCC(O)C3)c(Cl)cc2F)c1=O (stereo not drawn) [Example 113]
- logP: logP = 1.72^a)

SMILES: CON(C)C(=O)N(c1cc(-n2c(=O)cc(C(F)(F)F)n(C)c2=O)c(F)cc1Cl)S(C)(=O)=O [Example 109]
- logP: logP = 2.56^a)

SMILES: CCOC(=O)CONC(=O)Nc1cc(-n2c(=O)cc(C(F)(F)F)n(C)c2=O)c(F)cc1Br [Example 105]
- logP: logP = 2.62^a)

SMILES: C=CCN(C(=O)N(C)OC)c1cc(-n2c(=O)cc(C(F)(F)F)n(C)c2=O)c(F)cc1Cl [Example 106]
- logP [1]: logP = 2.96^a)

SMILES: Cn1c(C(F)(F)F)cc(=O)n(-c2cc(NC(=O)N3CCC4(CC3)OCCO4)c(Br)cc2F)c1=O [Example 85]
- logP: logP = 2.35^a)

SMILES: Cn1c(C(F)(F)F)cc(=O)n(-c2cc(NC(=O)N3CCCS3(=O)=O)c(Cl)cc2F)c1=O [Example 102]
- logP: logP = 2.38^a)

SMILES: COC(=O)CSC(=O)Nc1cc(-n2c(=O)cc(C(F)(F)F)n(C)c2=O)c(F)cc1Cl [Example 14]
- logP: logP = 2.55^a)

SMILES: CCON(C)C(=O)Nc1cc(-n2c(=O)cc(C(F)(F)F)n(C)c2=O)c(F)cc1Br [Example 69]
- logP: logP = 3.06^a)

SMILES: CCON(CC)C(=O)Nc1cc(-n2c(=O)cc(C(F)(F)F)n(C)c2=O)c(F)cc1Br [Example 72]
- logP: logP = 3.41^a)

SMILES: Cn1c(C(F)(F)F)cc(=O)n(-c2cc(NC(=O)N3CCC(=O)CC3)c(Br)cc2F)c1=O [Example 93]
- logP [1]: logP = 1.97^a)

SMILES: CCON(C)C(=O)Nc1cc(-n2c(=O)cc(C(F)(F)F)n(C)c2=O)c(F)cc1Cl [Example 68]
- logP: logP = 2.99^a)

SMILES: Cn1c(C(F)(F)F)cc(=O)n(-c2cc(NC(=O)N3CCC4(CC3)OCCO4)c(Cl)cc2F)c1=O [Example 84]
- logP: logP = 2.29^a)

SMILES: CCOC(=O)CSC(=O)Nc1cc(-n2c(=O)cc(C(F)(F)F)n(C)c2=O)c(F)cc1Cl [Example 13]
- logP: logP = 2.80^a)

SMILES: CCOC(=O)CN(C)C(=O)Nc1cc(-n2c(=O)cc(C(F)(F)F)n(C)c2=O)c(F)cc1Cl [Example 121]
- logP: logP = 2.48^a)

SMILES: Cn1c(C(F)(F)F)cc(=O)n(-c2cc(NC(=O)N3CCC4(CC3)OCCCO4)c(Br)cc2F)c1=O [Example 87]
- logP: logP = 2.35^a)

SMILES: COC(=O)CSC(=O)Nc1cc(-n2c(=O)cc(C(F)(F)F)n(C)c2=O)c(F)cc1Br [Example 19]
- logP: logP = 2.59^a)

SMILES: CCOC(=O)N1CCN(C(=O)Nc2cc(-n3c(=O)cc(C(F)(F)F)n(C)c3=O)c(F)cc2Br)CC1 [Example 97]
- logP: logP = 2.47^a)

SMILES: CCN(C(=O)N(C)OC)c1cc(-n2c(=O)cc(C(F)(F)F)n(C)c2=O)c(F)cc1Cl [Example 111]
- logP: logP = 2.80^a)

SMILES: CCOC(=O)C(C)SC(=O)Nc1cc(-n2c(=O)cc(C(F)(F)F)n(C)c2=O)c(F)cc1Cl (stereo not drawn) [Example 12]
- logP: logP = 3.11^a)

SMILES: CCOC(=O)C(C)SC(=O)Nc1cc(-n2c(=O)cc(C(F)(F)F)n(C)c2=O)c(F)cc1Br (stereo not drawn) [Example 17]
- logP: logP = 3.15^a)
